Laboratory results published in patent US7521418B2, “Use of a polyene macrolide antifungal agent in combination with a glycopeptide antibacterial agent” (Theravance, Inc., priority 2003, dated 2009).

Assays:
A. flavus ATCC 64025 = experiment: Checkerboard MIC assay, FICI; format: cell-based, Aspergillus flavus; settings: combination with Compound 1
Description: (§1) The following assay was used to determine the minimum inhibitory concentration (MIC) and fractional inhibitory concentration index (FICI) for combinations of an antifungal agent and a glycopeptide antibacterial agent. This assay and methods for calculating FICI are well known in the art. See, for example, Eliopoulos, E. G. and R. Moellering, Jr. “Antimicrobial Combinations” in Antibiotics in Laboratory Medicine, edited by V. Lorian, 4th Ed., Williams & Wilkins, Baltimore, MD, pp. 330-396 (1996); […] et al., Antimicrobial Agents and Chemotherapy 47(4):1416-1418 (2003); or […] et al., Antimicrobial Agents and Chemotherapy 46(10):3323-3326 (2002). […] The MIC of the glycopeptide antibacterial agent determined from this experiment was used in FIC calculations. […]

[1] = tested on: M. circinelloides ATCC 26759; experiment: Checkerboard MIC assay, FICI; format: cell-based, Mucor circinelloides; settings: combination with Compound 1
Description: as §1

Row | Compound | FICI (A. flavus ATCC 64025) | FICI [1]
1 | C[C@@H]1[C@H](O)[C@@H](C)/C=C/C=C/C=C/C=C/C=C/C=C/C=C/[C@H](O[C@@H]2O[C@H](C)[C@@H](O)[C@H](N)[C@@H]2O)C[C@@H]2O[C@](O)(C[C@@H](O)C[C@@H](O)[C@H](O)CC[C@@H](O)C[C@@H](O)CC(=O)O[C@H]1C)C[C@H](O)[C@H]2C(=O)O [Amphotericin B] | 0.51 | 0.26
2 | C[C@@H]1[C@H](O)[C@@H](C)/C=C/C=C/CC/C=C/C=C/C=C/C=C/C(O[C@H]2O[C@H](C)[C@@H](O)[C@H](N)[C@@H]2O)CC2O[C@](O)(CC(O)C(O)CCC(O)CC(O)CC(O)CC(=O)O[C@H]1C)CC(O)C2C(=O)O (stereo partly shown) [Nystatin] | 0.51 | 0.28
